Results from the NIST ThermoML archive (doi:10.1016/j.tca.2018.11.010).
Numbers after ± are expanded uncertainties.

Experiment: wn = mass fraction of the nth substance listed
Conditions: 298 K; 100 kPa; Liquid; Laser flash apparatus; w1 = 0.9

## CCCCCCCC/C=C\CCCCCCCC(=O)O [(Z)-9-octadecenoic acid] + CCCCCCCCCCCCCC(=O)O
  thermal conductivity: 0.2513 ± 0.0057 W/m/K
